Test results as given in PMC12584836, “Rubus caesius leaves and stems in antiaging skin care products: antityrosinase, anticollagenase, antimicrobial activity, and transdermal distribution of main phenolic acids” (Pharmaceutical Biology, 2025).
In brackets after ≈: the same amount, converted by molar mass.

Legend:
Assay in all cases: Antibacterial broth microdilution
Type in all cases: cell-based
[1] = test system: M. catarrhalis PCM2340; conditions: Moraxella catarrhalis, standard
Experimental: (§1) Brain-heart infusion broth (BHI, Becton Dickinson) supplemented with 10% bovine serum was used for the cultivation of Streptococcus. […] Corynebacterium diphtheriae ZMF was cultured in Brain-heart infusion broth (BHI, Becton Dickinson) supplemented with 10% bovine serum under aerobic conditions at 37 °C for 72 h. Fungal strains-Candida albicans (ATCC10231), Candida albicans (ATCC26790), Candida [NT]200), Candida krusei (ATCC6258), Candida parapsilosis (ATCC22019) were grown in Sabourauda broth (SB, Becton Dickinson), under aerobic conditions at 37 °C for 72 h. For post-incubation viability assessment, BHI blood agar plates, MH agar plates, and Sabouraud agar plates were used. Active cultures were prepared by transferring cells from stock cultures into appropriate broth, as described above. […] Cultures were then diluted in the same broth to achieve an optical density corresponding to approximately 10^6 colony-forming units per milliliter (CFU/mL) for all bacteria strains except C. acnes and C. diphtheriae ZMF. […] [2014]). The minimum inhibitory concentration (MIC) was determined using the broth microdilution method in 96-well plates. Each well was filled with 100 μL of broth. […] These solutions were serially diluted and added to the first well of each row. Serial twofold dilutions were performed by transferring 100 μL from well to well up to the twelfth well, from which 100 μL was discarded. […] Ampicillin served as the reference standard, with concentrations ranging from 128 to 0.0625 μg/mL. Plates were incubated under the appropriate conditions at 37 °C for […] (Clostridium sp. was incubated anaerobically). MIC values were determined by visual observation and defined as the lowest extract concentration that prevented visible microbial growth. To determine the minimum bactericidal concentration (MBC), 100 μL from wells showing no visible growth were plated on agar media. […] The MBC was defined as the lowest concentration of extracts required to completely eliminate viable microorganisms (Hałasa et al. [2014]).

[2] = test system: Streptococcus β hemolytic group G; conditions: S. β-hemolytic group G, standard
Experimental: as §1

[3] = test system: B. subtilis ATCC6633; conditions: Bacillus subtilis, standard
Experimental: as §1

[4] = test system: C. diphtheriae; conditions: Corynebacterium diphtheriae, standard
Experimental: as §1

[5] = test system: S. epidermidis ATCC14990; conditions: Staphylococcus epidermidis, standard
Experimental: as §1

[6] = test system: S. equinus ATCC15351; conditions: Streptococcus equinus, standard
Experimental: as §1

[7] = test system: C. acnes ATCC6919; conditions: Cutibacterium acnes, standard
Experimental: as §1

SMILES: CC1(C)S[C@@H]2[C@H](NC(=O)[C@H](N)c3ccccc3)C(=O)N2[C@H]1C(=O)O [Ampicillin, ampicillin]
- MIC [1]: 2.5 µg/mL (≈ 7.15 µM)
- MIC [2]: 16 µg/mL (≈ 45.8 µM)
- MIC [3]: 0.4 µg/mL (≈ 1.14 µM)
- MIC [4]: 16 µg/mL (≈ 45.8 µM)
- MIC [5]: 0.3 µg/mL (≈ 0.859 µM)
- MIC [6]: 16 µg/mL (≈ 45.8 µM)
- MIC [7]: 32 µg/mL (≈ 91.6 µM)
